# Data as given in a melting point compilation (Tetko et al.; mined from patent text by program, amines drawn as free bases though some values may be those of a salt).
row,melting point [°C],Structure (SMILES)
1,99 to 101,C[C@H](O)[C@H](CNC(=O)c1ccccc1)C(=O)O
2,116 to 117,CC(C)(C)OC(=O)CNC(=O)c1ccc(N)c(Cl)c1
3,109 to 110,COc1cc2c(cc1OCc1ccccc1)CCN(Cc1cccc([N+](=O)[O-])c1)C2
4,252 to 253,O=Cc1ccc(O)c(CP(=O)(O)O)c1
5,168 to 170,Nc1cnn2cnc3ccccc3c12
6,> 260,FC(F)(F)c1cc2cc3cc4cc(Sc5ccccc5)c(Sc5ccccc5)cc4cc3cc2cc1C(F)(F)F
7,113,CCOC(=O)c1c(N2CCN(C(=O)c3cccs3)CC2)c2cc(F)cnc2n(Cc2cccc(F)c2)c1=O
8,132 to 134,CC(C)(C)OC(=O)N1CCc2ccc3ccn(CCOc4ccccc4F)c3c2CC1
9,209 to 213,Cc1c(F)cc(O)c2c(=O)c(C(=O)O)cn([C@@H]3C[C@@H]3F)c12
10,107,COC=C(C(=O)OC)c1c(OC)ncnc1Oc1cccc(C)c1
11,169 to 170,CCCCc1oc2ccccc2c1-c1ccc(-c2ccc(OC(Cc3ccccc3)C(=O)O)cc2)cc1 (stereo unspecified)
12,153 to 155,O=S(=O)(c1ccccc1)N1CCC(C(=NCc2ccccc2)c2ccc(F)cc2)CC1
13,116 to 118,CC(=O)OCCc1ccccc1S(N)(=O)=O
14,168 to 169,O=C(NCCc1ccc(O)cc1)c1ccc2n1Cc1ccccc1N(C(=O)CSc1ccc(Br)cc1)C2
15,145 to 147,CCN(CC)CCCNc1nnc(COC)c2c1cc1n2CCCC1
16,65 to 68,CCCCCCCCCCCCNS(=O)(=O)c1cccc(C(F)(F)F)c1
17,70,[N-]=[N+]=Nc1ccc(C(=O)OCCOC(=O)CC[C@@H](C(=O)O)n2c3ccccc3c3ccccc32)cc1
18,134 to 136,Cc1cc2c(-c3cccc(C(F)(F)F)c3)nc(-c3ccc(C(F)(F)F)cc3)nc2s1

row,melting point [°C],Structure (SMILES)
1,210 to 211,Cc1ccc(-c2ccc3c(c2)C=C(C(=O)Nc2ccc(CN4CCCCC4)cc2)CC(c2ccccc2)O3)cc1 (stereo unspecified)
2,93 to 94.5,CCOP(=O)(Cc1ccc(C(=O)N2CCc3ccccc32)cc1)OCC
3,123 to 124,CCOc1nn(Cc2cc(OCc3ccc4ccccc4n3)no2)cc1CCC(=O)O
4,186 to 187,Cc1cc(C)c2c(O)c([N+](=O)[O-])c(=O)oc2c1
5,90 to 100,CCCCCCCCCCNC(=O)C=C(c1ccccc1)c1ccc(N)cc1
6,170 to 172,Cc1oc(-c2ccccc2)nc1CCOc1ccc(C[C@H](NC(=O)C=Cc2ccccc2C(F)(F)F)C(=O)O)cc1
7,107 to 110,C=CCOc1cc(-n2c(OC)nc(C(F)(F)F)cc2=O)c(F)cc1Br
8,80,COC(=O)C(C)(C)OCC#Cc1cc(Cl)ccc1NS(=O)(=O)c1ccc2nc(NC(C)=O)sc2c1
9,135 to 140,CCOC(=O)CN(C#N)Cc1cc(-n2cc(C)nc2C)cc(C)c1N
10,252 to 254,Cc1cccc(NC(=O)NC2CN(C(=O)C(C)(C)C)c3ccccc3N(CC(=O)N(C)C)C2=O)c1 (stereo unspecified)
11,168 to 172,CN(C)N=Nc1cscc1C(N)=O
12,84 to 85,CN1C(C)(C)CC(CO)CC1(C)C
13,124 to 126,CC(C)(C)OC(=O)C(N)c1ccc(C(=O)O)cc1[N+](=O)[O-] (stereo unspecified)
14,145 to 146,CCCCNC(N)=Nc1nc(-c2cccc(CNC(C)=O)n2)cs1
15,140 to 141,Cc1ccc(N(C(=O)CCl)c2c(Cl)cc(C)cc2Cl)cc1
16,200 to 203,CCC(C#N)=C1CCN(c2ccc(N3C[C@H](CNC(=O)CBr)OC3=O)cc2F)CC1
17,212 to 214,Cn1cc(-c2ccccc2)c(=O)c(-c2ccc([N+](=O)[O-])cc2)c1

# Second part, the compound before the results:
row,Structure (SMILES),melting point [°C]
1,CC(c1oc2ccccc2c(=O)c1-c1cccc(F)c1)n1nc(-c2cc(O)cc(Cl)c2)c2c(N)ncnc21 (stereo unspecified),122 to 124
2,CN(C)CCN1CCC(O)(c2ccccc2)C(C(O)c2ccccc2)C1 (stereo unspecified),157 to 158
3,Cc1c(CC(C)(C)C(=O)O)n(Cc2ccc(Cl)cc2)c2ccc(Cl)cc12,142
4,COc1ccccc1C(O)c1cc(Br)cc(Br)c1 (stereo unspecified),112 to 116
5,NC(=O)COc1ccc(-c2n[nH]c3c2Cc2ccccc2-3)cc1,247 to 248
6,CC(C)(C)c1cc(-n2ccc(=O)[nH]c2=O)cc(Br)c1Cl,> 280
7,O=C1COc2ccc(CN3CCN(c4ccccc4)CC3)cc2N1,207 to 209
8,CC(=O)SC[C@@H](C)C(=O)N1C(=O)N(C)C[C@H]1C(=O)OC(C)(C)C,104
9,CCCNC(=O)C(C)(C)N=NC(C)(C)C(=O)NCCC,65
10,COC(=O)c1cc(-c2ccc(C)cc2)c(O)c(C(C)(C)C)c1,105
11,O=S1(=O)N=CN(C2CC2)c2c(F)cccc21,151 to 152
12,CCCCn1nc2c(N)nc3ccccc3c2c1CC(C)(C)O,130
13,OC1(c2ccccc2)Cc2ccccc2C1,54
14,Nc1ccc(C(=O)OC2CCN(Cc3ccccc3)CC2)cc1,119 to 120
15,CCCc1[nH]c(C(=O)OCC)c(CCC)c1C,78 to 80
16,CC#CC1(O)CCC2C3CCC4=CC(=O)CCC4C3C(=CF)CC21C (stereo unspecified),148
17,CN(C)C(=O)CCC(=O)NC1CCC(CCN2CCC(c3cccc4c3CCO4)CC2)CC1 (stereo unspecified),205
18,CCCCSCC(=O)N(Cc1cccnc1)C(C)(C)C,55 to 56
19,O=C(O)C1Cc2cccc(-c3ccccc3)c2C1 (stereo unspecified),97 to 102
20,Fc1ccc(CN2CCc3cc(OC[C@H]4CO[C@](Cn5ccnc5)(c5ccc(Cl)cc5Cl)O4)ccc3C2)cc1 (racemic),119 to 120
21,CC(=O)Nc1cc(Cl)c(C)cc1Br,154 to 155
22,Cc1ccc(S(=O)(=O)OCCCC2CCN(C(=O)OCc3ccccc3)CC2)cc1,59 to 60

row,Structure (SMILES),melting point [°C]
1,N#Cc1ccc2c(c1)C=C(C(=O)O)C(C(F)(F)F)O2 (stereo unspecified),102 to 106
2,CC(C)CC(NC(=O)OC(C)(C)C)C(=O)NCCC(=O)O (stereo unspecified),91 to 92
3,CCOC(=O)/C(=N\OCC(=O)N1CCCCCC1)c1csc(N)n1,163 to 164
4,COC(=O)c1cc2c(OC[C@@H](O)CN3CCC(c4ccc5ccccc5c4)CC3)cccc2o1,118 to 119
5,CCOC(=O)C1(c2ccccc2)CCN(C2CCC(C#N)(c3ccc(F)cc3C)CC2)CC1 (stereo unspecified),135
6,COc1ccc2c(=O)c3oc4c5ccccc5ccc4c3oc2c1,282 to 284
7,O=c1[nH]c2ccc(C(F)(F)F)cc2c(-c2cc(Cl)ccc2O)c1NS(=O)(=O)C(F)(F)F,268 to 270
8,COC(=O)C1CC(O)CN1C(=O)c1cc2c(cc1[N+](=O)[O-])OCO2 (stereo unspecified),166
9,O=C1c2ccccc2C(=O)N1CC(=CBr)c1ccccc1,128 to 129
10,CNC(=NS(C)(=O)=O)NCCCCc1csc(NC(N)=NCCO)n1,128 to 132
11,COc1cc(Sc2ccccc2CO)ccc1Cl,78 to 80
12,COc1ccc(C2Sc3cc(Sc4ccccc4)ccc3NC(=O)C2O)cc1 (stereo unspecified),195 to 198
13,Nc1nc(O)c2c(n1)NC[C@H](CCc1ccc(Br)cc1)C2,275 to 283
14,CC(C)(C)OC(=O)NNc1ccc(N)cc1,128
15,Cc1oc(-c2ccco2)nc1COc1ccc(COc2nn(Cc3ccccc3)cc2C=O)cn1,104 to 105
16,CC(C)(C)c1cc(CCc2ccccc2NC(=O)NC2CCN(CCc3ccccc3)CC2)cc(C(C)(C)C)c1O,175 to 176
17,COc1ccc(-c2cc(C)nn2-c2ccc([N+](=O)[O-])cc2)cc1,155 to 158
18,COC(=O)c1ccc2sc(Cl)nc2c1C,112
19,Cc1cc(Nc2nccc(-c3sc(N)nc3C)n2)ccc1N1CCCCC1,221 to 223
20,Cc1cc(-c2ccc(Cl)cc2)nc(-c2ccnc(-c3cccc(S(N)(=O)=O)c3)c2)n1,224
21,CN1C(=O)C(NC(=O)Nc2cccc(C#N)c2)C(=O)N(c2ccccc2)c2ccccc21 (stereo unspecified),> 250
22,CC/C=C\CCCCCCCCCCOc1ccc(C(=O)O)o1,89 to 90

row,Structure (SMILES),melting point [°C]
1,CCn1ccc2c(ccc3[nH]cc(CCN)c32)c1=O,224 to 227
2,Cn1c(CN2CC=C(/C=C/c3ccccc3)CC2)nc2ccccc21,188 to 190
3,CCCCCCCCCCCCCCOCC(CCC(=O)N(C)C)(CCC(=O)N(C)C)COCCCCCCCCCCCCCC,47 to 49
4,Cc1cccc(CCN2CCC[C@H](C(C#N)(c3ccccc3)c3ccccc3)C2)c1,149 to 150
5,CN1CCC(NC(=O)c2cccc3oc(-c4ccccc4)nc23)CC1,126 to 128
6,CC(C)(C)NCC(O)CN1C(=O)NC(Cc2c[nH]c3ccccc23)C1=O (stereo unspecified),190 to 191
7,CCC(C(CC(=O)OC)c1ccc2c(c1)OCO2)[N+](=O)[O-] (stereo unspecified),185 to 189
8,Nc1sc2c(c1C(=O)c1ccsc1)CCC2,125 to 127
9,CCOC(=O)Oc1ccc(C=CC(=O)N2CCN(CC(=O)N3CCCC3)CC2)cc1,128 to 130
10,CCN(CC)CCCNC(=O)Cn1ncc(-c2ccccn2)c1-c1ccccc1,82 to 83
11,CS(=O)(=O)c1ccc(-c2cc(C(=O)CO[N+](=O)[O-])nn2-c2ccccn2)cc1,82 to 84
12,COc1ccc(N2CCN(CCC3OCCc4cc(C(=O)N(C)C)ccc43)CC2)cc1 (stereo unspecified),94 to 96
13,COc1nc(C2CC2)nc(O)c1C,178
14,Cc1cncnc1Nc1ccc(C(=O)CC2CCN(Cc3ccccc3)CC2)cc1,211 to 213
15,CSc1ccccc1N1CCN(Cc2nc3ccccc3[nH]2)CC1,214 to 216
16,Cc1cc(C)cc(Sc2c(C(C)C)c(=O)[nH]c(=O)n2CCC2C=CCC2)c1 (stereo unspecified),138 to 140
17,Cc1ncc2[nH]c3ccccc3c2n1,240 to 242
18,COc1cccc([C@]23CCN(C)C(=O)[C@@H]2CCC(=O)C3)c1 (relative stereo),156 to 158
19,NC(=O)c1nc(Cl)cc(N)c1Cl,240 to 241
20,Oc1cc(CCl)ncn1,164 to 166
21,CC1(C)O[C@H]2[C@H](OCc3ccccc3)O[C@H](C(=O)O)[C@H]2O1,79
22,O=C1NCCC1Cc1ccccc1 (stereo unspecified),112 to 113
